# What was measured:
# Assay type in all cases: functional
# Enterococcus faecalis = assay: Minimum inhibition concentration against Enterococcus faecalis
# Staphylococcus aureus [1] = assay: Minimum inhibition concentration against Methicillin resistant Staphylococcus aureus
# Staphylococcus aureus [2] = assay: Minimum inhibition concentration against Staphylococcus aureus
SMILES,MIC (Enterococcus faecalis),MIC (Staphylococcus aureus [1]),MIC (Staphylococcus aureus [2])
CN(C)c1ccc(O)c2c1C[C@H]1C[C@H]3[C@H](N(C)C)C(O)=C(C(N)=O)C(=O)[C@@]3(O)C(O)=C1C2=O [MINOCYCLINE],< 0.098 µg/mL,6.25 µg/mL,3.12 µg/mL
C[C@H]1c2ccc(-c3ccc(N)cc3)c(O)c2C(=O)C2=C(O)[C@]3(O)C(O)=C(C(N)=O)C(=O)[C@@H](N(C)C)C3[C@@H](O)C21 (stereo partly specified),3.12 µg/mL,1.56 µg/mL,3.12 µg/mL
C[C@H]1c2cccc(O)c2C(=O)C2=C(O)[C@]3(O)C(=O)C(C(N)=O)=C(O)[C@@H](N(C)C)[C@@H]3[C@@H](O)[C@@H]21.O [DOXYCYCLINE],6.25 µg/mL,6.25 µg/mL,> 50 µg/mL
C[C@H]1c2ccc(-c3ccccc3)c(O)c2C(=O)C2=C(O)[C@]3(O)C(O)=C(C(N)=O)C(=O)[C@@H](N(C)C)C3[C@@H](O)C21 (stereo partly specified),1.56 µg/mL,0.78 µg/mL,3.12 µg/mL
C#Cc1ccc2c(c1O)C(=O)C1=C(O)[C@]3(O)C(O)=C(C(N)=O)C(=O)[C@@H](N(C)C)C3[C@@H](O)C1[C@H]2C (stereo partly specified),0.78 µg/mL,0.39 µg/mL,1.56 µg/mL
C=Cc1ccc2c(c1O)C(=O)C1=C(O)[C@]3(O)C(O)=C(C(N)=O)C(=O)[C@@H](N(C)C)C3[C@@H](O)C1[C@H]2C (stereo partly specified),< 0.098 µg/mL,< 0.098 µg/mL,1.56 µg/mL
C[C@H]1c2ccc(-c3ccc([N+](=O)[O-])cc3)c(O)c2C(=O)C2=C(O)[C@]3(O)C(O)=C(C(N)=O)C(=O)[C@@H](N(C)C)C3[C@@H](O)C21 (stereo partly specified),0.78 µg/mL,0.39 µg/mL,3.12 µg/mL

# — ChEMBL document CHEMBL1134864, “Synthesis and biological evaluation of 9-substituted tetracycline derivatives” (2002)
